# Laboratory results as given in ChEMBL document CHEMBL1122248, “Cloxacepride and related compounds: a new series of orally active antiallergic compounds” (1983).
# Key:
# Rattus norvegicus [1] = test: PCA activity of compound in rat at 100 mg/kg dose; type: functional
# Rattus norvegicus [2] = test: Tested for PCA activity in rat at 200 mg/kg dose; type: functional
# Rattus norvegicus [3] = test: Tested for antigenic challenge time, time measured was immediate when compound was administered before challenge in rat; immediate; type: functional, organism-based
# Rattus norvegicus [4] = test: Tested for PCA activity of compound in rat at 10 mg/kg intravenous dose; type: functional
# Rattus norvegicus [5] = test: Tested for anti PCA- activity when compound was administered intravenously 60 min before challenge in rat; type: functional; settings: iv
# Rattus norvegicus [6] = test: Tested for PCA activity of compound in rat at 2.5 mg/kg intravenous dose; type: functional
# Rattus norvegicus [7] = test: Tested for PCA activity of compound in rat at 5 mg/kg intravenous dose; type: functional
# Rattus norvegicus [8] = test: Tested for PCA activity of compound in rat at 1.0 mg/kg intravenous dose; type: functional
# Rattus norvegicus [9] = test: Tested for antigenic challenge time, time measured was immediate when compound was administered before challenge in rat;Immed = Immediate; type: functional, organism-based
# Rattus norvegicus [10] = test: Tested for antigenic challenge time, time measured was immediate when compound was administered before challenge in rat; Immed = Immediate; type: functional, organism-based
# Rattus norvegicus [11] = test: Tested for anti PCA- activity when compound was administered orally 60 min before challenge in exp1; type: functional; settings: po
# Rattus norvegicus [12] = test: Tested for anti PCA- activity when compound was administered orally 60 min before challenge in exp2; type: functional; settings: po
# Rattus norvegicus [13] = test: Tested for PCA activity of compound in rat at 50 mg/kg dose at 60 min challenge time.; type: functional; settings: 1 h
# Rattus norvegicus [14] = test: Tested for PCA activity of compound in rat at 50 mg/kg dose; type: functional
# Rattus norvegicus [15] = test: Tested for PCA activity of compound in rat at 25 mg/kg dose; type: functional
# Rattus norvegicus [16] = test: Tested for anti PCA- activity when compound was administered perorally 60 min before challenge in; type: functional; settings: po
SMILES,inhibition in vivo at 100 mg/kg (Rattus norvegicus [1]) [%],inhibition in vivo at 200 mg/kg (Rattus norvegicus [2]) [%],other results
CCN(CC)CCNC(=O)c1ccc(Cl)c(NC(=O)COc2ccc(Cl)cc2)c1,7,,
CCN(CC)CCNC(=O)c1cc(Cl)c(NC(=O)COc2ccccc2)cc1OC,47,67,
CCN(CC)CCNC(=O)c1cc(Cl)c(NC(=O)CSc2ccccc2)cc1OC,26,,
CCN(CC)CCNC(=O)c1cc(Cl)c(N)cc1OC [METOCLOPRAMIDE],14,,Challenge time (Rattus norvegicus [3]): Immediate; inhibition in vivo at 10 mg/kg (Rattus norvegicus [4]): 84%
CCN(CC)CCNC(=O)c1cc(Cl)c(NC(=O)CNc2ccccc2)cc1OC,5,,
CCN(CC)CCNC(=O)c1cc(Cl)c(NC(=O)COc2cccc(Cl)c2Cl)cc1OC,,0,
CCN(CC)CCNC(=O)c1cc(Cl)c(NC(=O)COc2ccc(I)cc2)cc1OC,0,27,
COc1cc(NC(=O)COc2ccc(Cl)cc2)c(Cl)cc1C(=O)O,,0,
CCN(CC)CCNC(=O)c1cc(Cl)c(NC(=O)COc2ccc(Cl)cc2Cl)cc1OC,,0,
O=C([O-])c1cc(=O)c2c(OCC(O)COc3cccc4oc(C(=O)[O-])cc(=O)c34)cccc2o1.[Na+].[Na+] [CROMOLYN SODIUM],,,ED50 (Rattus norvegicus [5]): 2 mg/kg; inhibition in vivo at 2.5 mg/kg (Rattus norvegicus [6]): 58%; inhibition in vivo at 5 mg/kg (Rattus norvegicus [7]): 78%; inhibition in vivo at 1 mg/kg (Rattus norvegicus [8]): 28%; Challenge time (Rattus norvegicus [9]): Immed; Challenge time (Rattus norvegicus [10]): Immed
COc1cc(NC(=O)COc2ccc(Cl)cc2)c(Cl)cc1C(=O)NCc1cccnc1,,20,
CCN(CC)CCNC(=O)c1cc(Cl)c(NC(=O)C(C)(C)Oc2ccc(Cl)cc2)cc1OC.Cl,0,20,
COc1cc(NC(=O)COc2ccc(Cl)cc2)c(Cl)cc1C(=O)N1CCN(C)CC1,0,,
CCN(CC)CCNC(=O)c1cc(Cl)c(NC(=O)COc2ccc(Cl)cc2)cc1OC.Cl [CLOXACEPRIDE HYDROCHLORIDE],69,75,ED50 (Rattus norvegicus [11]): 49 mg/kg; ED50 (Rattus norvegicus [12]): 46.9 mg/kg; inhibition in vivo at 50 mg/kg (Rattus norvegicus [13]): 49%
CCN(CC)CCNC(=O)c1cccc(NC(=O)COc2ccc(Cl)cc2)c1,7,,
CCN(CC)CCNC(=O)c1ccc(NC(=O)COc2ccc(Cl)cc2)c(Cl)c1.O=C(O)CC(O)(CC(=O)O)C(=O)O,14,0,
CCN(CC)CCNC(=O)c1cc(Cl)c(NC(=O)COc2ccc(OC)cc2)cc1OC.Cl,53,33,
CCN(CC)CCNC(=O)c1cc(Cl)c(NC(=O)COc2ccc(C)cc2)cc1OC,22,,
CCN(CC)CCNC(=O)c1ccc(NC(=O)COc2ccc(Cl)cc2)cc1,,0,

SMILES,inhibition in vivo at 100 mg/kg (Rattus norvegicus [1]) [%],inhibition in vivo at 200 mg/kg (Rattus norvegicus [2]) [%],other results
CCN(CC)CCNC(=O)c1cc(Cl)c(NC(=O)C(Oc2ccc(Cl)cc2)Oc2ccc(Cl)cc2)cc1OC,,0,
CCN(CC)CCNC(=O)c1ccc(NC(=O)COc2ccc(Cl)cc2)c(OC)c1,,20,
COc1cc(NC(=O)COc2ccc(Cl)cc2)c(Cl)cc1C(=O)N1CCN(C(c2ccccc2)c2ccccc2)CC1,0,,
CCOC(=O)c1cc(Cl)c(NC(=O)COc2ccc(Cl)cc2)cc1OC,93,20,
CCN(CC)CCCNC(=O)c1cc(Cl)c(NC(=O)COc2ccc(Cl)cc2)cc1OC,,20,
CCN(CC)CCNC(=O)c1cc(Cl)ccc1NC(=O)COc1ccc(Cl)cc1,0,,
CCN(CC)CCNC(=O)c1ccc(NC(=O)COc2ccccc2)c(OC)c1,,20,
CCN(CC)CCNC(=O)c1cc(Cl)c(NC(=O)COc2ccc(Cl)c(Cl)c2)cc1OC.Cl,0,0,
CCN(CC)CCNC(=O)c1cc(Cl)c(NC(=O)COc2cccc(C(F)(F)F)c2)cc1OC.Cl,53,40,
CCN(CC)CCNC(=O)c1cc(NC(=O)COc2ccc(Cl)cc2)ccc1OC(C)=O,0,,
COc1cc(NC(=O)COc2ccc(Cl)cc2)c(Cl)cc1C(=O)N1CCN(C/C=C/c2ccccc2)CC1,0,,
CCN(CC)CCNC(=O)c1cc(Cl)ccc1NC(=O)COc1ccc(F)cc1,0,,
CCN1CCCC1CNC(=O)c1cc(Cl)c(NC(=O)COc2ccc(Cl)cc2)cc1OC (stereo not drawn),,,inhibition in vivo at 50 mg/kg (Rattus norvegicus [14]): 60%; inhibition in vivo at 25 mg/kg (Rattus norvegicus [15]): 53%
CCN(CC)CCNC(=O)c1cc(Cl)c(NC(=O)COc2ccccc2Cl)cc1OC,,0,
O=C(O)c1ccc2oc3ccc(OCCO)cc3c(=O)c2c1,71,,
CCN(CC)CCNC(=O)c1cc(Cl)c(NC(=O)COc2ccc(F)cc2)cc1OC,33,67,
CCN(CC)CCNC(=O)c1cc(Cl)c(NC(=O)C(C)Oc2ccc(Cl)cc2)cc1OC.Cl (stereo not drawn),62,32,ED50 (Rattus norvegicus [11]): 64.5 mg/kg; ED50 (Rattus norvegicus [12]): 60.9 mg/kg; inhibition in vivo at 50 mg/kg (Rattus norvegicus [14]): 41%
COc1cc(NC(=O)COc2ccc(Cl)cc2)c(Cl)cc1NCCN1CCCC1,,20,
Cn1c(=O)c2nc[nH]c2n(C)c1=O.O [THEOPHYLLINE],,,ED50 (Rattus norvegicus [16]): 47.2 mg/kg
